≈ marks a conversion by molar mass, not a printed value. Calls of active or inactive are those of the source. No cut-off for these calls is given here.

The subject of test [1] is Staphylococcus aureus. As to the kind of experiment: Antibacterial activity against Staphylococcus aureus T2019 with G2576T mutation in 23S rRNA genes by disc diffusion method. The test is classed as functional, organism-based. In general terms: Agar diffusion results depend on both activity and mobility in agar.
Test [2] deals with Staphylococcus aureus. As to the kind of experiment: Antibacterial activity against Staphylococcus aureus T991 by disc diffusion method. Type of test: functional, organism-based.
The test system of test [3] is Staphylococcus aureus. Description: Antibacterial activity against Staphylococcus aureus T991 by Etest method. Type of test: functional.
The subject of test [4] is Staphylococcus aureus. Description: Antibacterial activity against Staphylococcus aureus T2019 with G2576T mutation in 23S rRNA genes by Etest method. The test is classed as functional.
Test [5] deals with Staphylococcus aureus. As to the kind of experiment: Antibacterial activity against Staphylococcus aureus T1888 expressing 23S rrn 3 G2576T and rrn 5 G2576T mutants by Etest method. The test is classed as functional.
The test system of test [6] is Staphylococcus aureus. As to the kind of experiment: Antibacterial activity against Staphylococcus aureus T1910 expressing 23S rrn2 G2576T, rrn3 G2576T, rrn4 G2576T and rrn5 G2576T mutants by Etest method. The test is classed as functional.
For test [7], the system named is Staphylococcus aureus. Description: Antibacterial activity against Staphylococcus aureus T1900 expressing 23S rrn3 G2576T, rrn4 G2576T and rrn5 G2576T mutants by Etest method. The test is classed as functional.
Test [8] relates to Staphylococcus aureus. Description: Antibacterial activity against Staphylococcus aureus T2019 expressing 23S rrn1 G2576T, rrn2 G2576T, rrn3 G2576T, rrn4 G2576T and rrn5 G2576T mutants by Etest method. Type of test: functional.
Test [9] relates to Staphylococcus aureus. Description: Antibacterial activity against Staphylococcus aureus T2019/50 expressing 23S rrn1 G2576T, rrn3 G2576T, rrn4 G2576T and rrn5 G2576T mutants by Etest method. The test is classed as functional.

The term MIC denotes the least concentration at which growth counts as inhibited. `O=C(N[C@H](CO)[C@H](O)c1ccc([N+](=O)[O-])cc1)C(Cl)Cl`: the MIC entry in the test with Staphylococcus aureus [1] is “inactive”. In addition, the result with Staphylococcus aureus [2] was Active.
Regarding `CCC[C@@H]1C[C@@H](C(=O)N[C@@H]([C@H]2O[C@H](SC)[C@H](O)[C@@H](O)[C@H]2O)[C@H](C)Cl)N(C)C1` [CLINDAMYCIN], the MIC against Staphylococcus aureus [3] and in the test with Staphylococcus aureus [4] was greater than 256 µg/mL each time.
Take `C[C@H]1c2cccc(O)c2C(=O)C2=C(O)[C@]3(O)C(=O)C(C(N)=O)=C(O)[C@@H](N(C)C)[C@@H]3[C@@H](O)[C@@H]21.O` [DOXYCYCLINE]: the MIC against Staphylococcus aureus [3] and in the test on Staphylococcus aureus [4] was 6 µg/mL each time.
As to `CC[C@H]1OC(=O)[C@H](C)[C@@H](O[C@H]2C[C@@](C)(OC)[C@@H](O)[C@H](C)O2)[C@H](C)[C@@H](O[C@@H]2O[C@H](C)C[C@H](N(C)C)[C@H]2O)[C@](C)(O)C[C@@H](C)C(=O)[C@H](C)[C@@H](O)[C@]1(C)O` [ERYTHROMYCIN], the MIC with Staphylococcus aureus [3] and in the test on Staphylococcus aureus [4] was greater than 256 µg/mL throughout.
Consider `CC(=O)O[C@H]1C[C@@]2(C)[C@@H](C[C@@H](O)[C@H]3[C@@]4(C)CC[C@@H](O)[C@@H](C)[C@@H]4CC[C@@]32C)/C1=C(\CCC=C(C)C)C(=O)O` [FUSIDIC ACID], for which the MIC against Staphylococcus aureus [3] came out at 0.19 µg/mL (≈ 0.368 µM); against Staphylococcus aureus [4] it was 0.5 µg/mL (≈ 0.968 µM).
Consider `CC(=O)NC[C@H]1CN(c2ccc(N3CCOCC3)c(F)c2)C(=O)O1` [LINEZOLID], for which the MIC against Staphylococcus aureus [5] was 8 µg/mL (≈ 23.7 µM); in the test on Staphylococcus aureus [6], 64 µg/mL (≈ 190 µM); with Staphylococcus aureus [3], 1 µg/mL (≈ 2.96 µM); with Staphylococcus aureus [4] it was 128 µg/mL (≈ 379 µM); against Staphylococcus aureus [7], 32 µg/mL (≈ 94.9 µM); against Staphylococcus aureus [8] it was 128 µg/mL (≈ 379 µM). In the test on Staphylococcus aureus [9], this molecule registered an MIC of 64 µg/mL (≈ 190 µM).
In the case of `CN(C)c1cc(NC(=O)CNC(C)(C)C)c(O)c2c1C[C@H]1C[C@H]3[C@H](N(C)C)C(O)=C(C(N)=O)C(=O)[C@@]3(O)C(O)=C1C2=O` [TIGECYCLINE], the MIC in the test with Staphylococcus aureus [3] came out at 1 µg/mL (≈ 1.71 µM); in the test with Staphylococcus aureus [4] it was 0.75 µg/mL (≈ 1.28 µM).
On the same counts, the results for GENTAMICIN are 256 µg/mL and 256 µg/mL.
